Measured values as given in ChEMBL document CHEMBL1201862, “PubChem BioAssay data set” (2004).
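Interpolation was linear, between the two tested concentrations surrounding the appropriate level; five concentrations were tested over 48 hours in 96-well plates. GI50 is the concentration that inhibits growth by half.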 Calls of active or inactive are those of the source. Cut-off read from the data, not from the text of the source: active = GI50 up to about 1.1 µM and inactive = higher.

How the values were obtained:
Test in all cases: DTP human tumour cell line panel, 48 h
[1] = system: BT-549
[2] = system: PC-3
[3] = system: RPMI-8226
[4] = system: TK-10
[5] = system: HCT-116
[6] = system: DU-145
[7] = system: SK-MEL-2
[8] = system: HOP-92
[9] = system: HL-60
[10] = system: EKVX
[11] = system: OVCAR-3
[12] = system: HCT-15
[13] = system: MCF7
[14] = system: SN12C
[15] = system: SNB-19
[16] = system: COLO 205
[17] = system: SF-539
[18] = system: U-251
[19] = system: M14
[20] = system: LOX IMVI
[21] = system: UACC-257
[22] = system: 786-0
[23] = system: SK-MEL-28
[24] = system: SR
[25] = system: HT-29
[26] = system: A498
[27] = system: A549
[28] = system: NCI-H226
[29] = system: UACC-62
[30] = system: MDA-N
[31] = system: Hs-578T
[32] = system: OVCAR-5
[33] = system: NCI-H460
[34] = system: Malme-3M
[35] = system: T47D
[36] = system: MDA-MB-435
[37] = system: KM12
[38] = system: SK-MEL-5
[39] = system: CCRF-CEM
[40] = system: ACHN
[41] = system: SF-295
[42] = system: IGROV-1
[43] = system: MOLT-4
[44] = system: OVCAR-8
[45] = system: HOP-62
[46] = system: NCI-H23
[47] = system: RXF 393
[48] = system: K562
[49] = system: SNB-75
[50] = system: HCC 2998
[51] = system: SK-OV-3
[52] = system: MDA-MB-231
[53] = system: NCI/ADR-RES
[54] = system: CAKI-1
[55] = system: NCI-H522
[56] = system: SW-620
[57] = system: SF-268
[58] = system: OVCAR-4

Compound: Cn1c2ccc3cc2c(=S)c2cc(ccc21)OCCOCCOCCOCCOCCO3
- GI50 [1]: > 10 µM (inactive)
- GI50 [2]: > 10 µM (inactive)
- GI50 [3]: > 10 µM (inactive)
- GI50 [4]: > 10 µM (inactive)
- GI50 [5]: > 10 µM (inactive)
- GI50 [6]: > 10 µM (inactive)
- GI50 [7]: > 10 µM (inactive)
- GI50 [8]: > 10 µM (inactive)
- GI50 [9]: > 10 µM (inactive)
- GI50 [10]: > 10 µM (inactive)
- GI50 [11]: > 10 µM (inactive)
- GI50 [12]: > 10 µM
- GI50 [13]: > 10 µM (inactive)
- GI50 [14]: > 10 µM (inactive)
- GI50 [15]: > 10 µM (inactive)
- GI50 [16]: > 10 µM (inactive)
- GI50 [17]: > 10 µM (inactive)
- GI50 [18]: > 10 µM (inactive)
- GI50 [19]: > 10 µM (inactive)
- GI50 [20]: > 10 µM (inactive)
- GI50 [21]: > 10 µM (inactive)
- GI50 [22]: > 10 µM (inactive)
- GI50 [23]: > 10 µM (inactive)
- GI50 [24]: > 10 µM (inactive)
- GI50 [25]: > 10 µM (inactive)
- GI50 [26]: > 10 µM (inactive)
- GI50 [27]: > 10 µM (inactive)
- GI50 [28]: > 10 µM (inactive)
- GI50 [29]: > 10 µM (inactive)
- GI50 [30]: > 10 µM (inactive)
- GI50 [31]: > 10 µM (inactive)
- GI50 [32]: > 10 µM (inactive)
- GI50 [33]: > 10 µM (inactive)
- GI50 [34]: > 10 µM (inactive)
- GI50 [35]: > 10 µM (inactive)
- GI50 [36]: > 10 µM (inactive)
- GI50 [37]: > 10 µM (inactive)
- GI50 [38]: > 10 µM (inactive)
- GI50 [39]: > 10 µM (inactive)
- GI50 [40]: > 10 µM (inactive)
- GI50 [41]: > 10 µM (inactive)
- GI50 [42]: > 10 µM (inactive)
- GI50 [43]: > 10 µM (inactive)
- GI50 [44]: > 10 µM (inactive)
- GI50 [45]: > 10 µM (inactive)
- GI50 [46]: > 10 µM (inactive)
- GI50 [47]: > 10 µM (inactive)
- GI50 [48]: > 10 µM (inactive)
- GI50 [49]: > 10 µM (inactive)
- GI50 [50]: > 10 µM (inactive)
- GI50 [51]: > 10 µM (inactive)
- GI50 [52]: > 10 µM (inactive)
- GI50 [53]: > 10 µM (inactive)
- GI50 [54]: > 10 µM (inactive)
- GI50 [55]: > 10 µM (inactive)
- GI50 [56]: > 10 µM (inactive)
- GI50 [57]: > 10 µM (inactive)
- GI50 [58]: > 10 µM (inactive)
